Patent US20260250300A1, “POLYMORPHS AND THEIR USE FOR TREATING CANCER” (Cairn Therapeutics, Inc., priority 2023, published 2026)

How the values were obtained:
Assay type in all cases: physicochemical
[1] = Relative stability of Form A hydrate and Form C anhydrate in ethanol and ethanol/water slurries
Experimental: The relative stability of the crystalline Form A hydrate and Compound 1 crystalline Form C anhydrate was evaluated in ethanol and ethanol/water between ambient temperature and 50° C.
Crystalline Form C anhydrate was prepared by slurrying crystalline Form A hydrate in absolute ethanol at 40° C. for about two days (Sample 1, FIG. 25A). Attempts to prepare amorphous material by cold precipitation and lyophilization were carried out but were unsuccessful. […] The lyophilization experiment produced material having an XRPD pattern consistent with crystalline Form E DMSO solvate (FIG. 25C).
To prepare the crystalline Form C anhydrate, 249 mg of Compound 1 crystalline Form A hydrate was placed in an 8 mL glass vial followed by 2.0 mL of absolute ethanol. The resulting slurry was stirred magnetically at 40° C. for about two days. The slurry was vacuum filtered and the solids allowed to air dry for 15 minutes at room temperature.

[2] = Slurry experiments using Compound 1 crystalline Form A hydrate in methanol and methanol:water, XRPD; conditions: two days, 30 mg
Experimental: The nature of this peak is unknown. […]
(§1) A Rigaku SmartLab X-Ray Diffractometer was configured in Bragg-Brentano reflection geometry equipped with a beam stop and knife edge to reduce incident beam and air scatter. No filter was used for crystalline Form C anhydrate crystalline Form E DMSO solvate. Spinning rate of 17 rpm was used for crystalline Form C anhydrate analysis. Other parameters are the same as described in Table 27.

[3] = Conversion rate of crystalline Form A hydrate to crystalline Form C anhydrate in ethanol at about 50° C., XRPD; conditions: slurry in absolute ethanol at about 50° C., 1 hour
Experimental: The conversion rate of the crystalline Form A hydrate to the crystalline Form C anhydrate in ethanol at about 50° C. was investigated (Table 25). Slurries were prepared using Compound 1 crystalline Form A hydrate as starting material. […] Each slurry was stirred magnetically at about 50° C. and subsequently vacuum filtered to collect the solid at given times. The resulting solids were analyzed by XRPD immediately. […] A Rigaku SmartLab X-Ray Diffractometer was configured in Bragg-Brentano reflection geometry equipped with a beam stop and knife edge to reduce incident beam and air scatter. […] Spinning rate of 17 rpm was used for crystalline Form C anhydrate analysis. Other parameters are the same as described in Table 27.

[4] = Stability study of crystalline Forms A and C at 25° C./60% RH and 40° C./75% RH, analysed by XRPD; conditions: after 4 weeks
Experimental: A sample of each of crystalline Forms A and C was placed in an uncapped vial and exposed to 25° C./60% RH and 40° C./75% relative humidity (“RH”) for 4 weeks (Table 24). The resultant samples were analyzed by XRPD at T=1, 2, and 4 weeks to evaluate their physical stability.
as §1

[5] = Dynamic vapor sorption (DVS) analysis; conditions: 25° C., 5 to 95% RH
Experimental: Different polymorphic forms of a compound may have different hygroscopic properties. […] A sample weight of less than 10 mg was loaded into a metal-coated quartz pan for analysis. The sample was analyzed at 25° C. after equilibrated to 5% relative humidity (RH) in 10% RH steps from 5 to 95% RH (adsorption cycle) and from 95 to 5% RH (desorption cycle). The movement from one step to the next occurred either after satisfying the equilibrium criterion of 0.01% weight change in 5 minutes or, if the equilibrium criterion was not met, after 90 minutes. The percent weight change values are calculated using Microsoft Excel®. The DVS analysis was carried out using a TA Instruments Q5000 Dynamic Vapor Sorption analyzer. […]

[6] = listed as Compound 1 crystalline Form A hydrate

SMILES | form conversion ([1]; absolute ethanol, about 40° C., about two days) | relative stability (form conversion) ([1]; ethanol and ethanol/water, between ambient temperature and 50° C.) | form conversion ([1]; ethanol at about 50° C., slurrying for four days) | XRPD Result ([2]; 95:5 MeOH:water) | XRPD Result ([2]; MeOH) | XRPD Result [3] | crystalline Form conversion (physical stability) [4] | hygroscopicity (DVS) ([5]; listed as Compound 1 Crystalline Form A hydrate) | DVS weight gain [5, 6] | hygroscopicity (DVS) [5, 6] | DVS weight gain ([5]; listed as Compound 1 Crystalline Form C anhydrate) | DVS weight gain ([5]; listed as Compound 1 crystalline Form C anhydrate)
CN1Oc2cc3c(c4cccc(c24)C1=O)[C@H](CCl)CN3C(=O)c1cc2cc(NC(=O)c3cc4ccccc4[nH]3)ccc2[nH]1 [Crystalline Form A hydrate, (S)—N-(2-(10-(Chloromethyl)-5-methyl-4-oxo-5,8,9,10-tetrahydro-4H-pyrrolo[3′,2′: 5,6]naphtho[1,8-de][1,2]oxazine-8-carbonyl)-1H-indol-5-yl)-1H-indole-2-carboxamide] | converts to the crystalline Form C anhydrate | converted to the crystalline Form C anhydrate except when the water activity of the solvent was greater than 0.31 | converted to crystalline Form C anhydrate | remained that of the crystalline Form A hydrate | remained that of the crystalline Form A hydrate | converted to crystalline Form C anhydrate completely | No crystalline Form conversion was observed | Slightly hygroscopic | less than 0.5% | slightly hygroscopic | – | –
CN1Oc2cc3c(c4cccc(c24)C1=O)[C@H](CCl)CN3C(=O)c1cc2cc(NC(=O)c3cc4ccccc4[nH]3)ccc2[nH]1 [Crystalline Form C anhydrate, (S)—N-(2-(10-(Chloromethyl)-5-methyl-4-oxo-5,8,9,10-tetrahydro-4H-pyrrolo[3′,2′: 5,6]naphtho[1,8-de][1,2]oxazine-8-carbonyl)-1H-indol-5-yl)-1H-indole-2-carboxamide] | – | – | – | – | – | – | – | – | – | – | Weight gain of 0.35% at 5-95% RH | 0.35%
